Consider 3 compounds from patent US20240299424A1, “USE OF PHYTOCANNABINOIDS FOR TREATING ENDOMETRIAL CANCER AND ENDOMETRIOSIS” (INTEGRATIVE THERAPY DISCOVERY LAB S.R.L., priority 2021, published 2024).

Molecules are shown by their SMILES.

Common to all, as to assay type: cell-based, human
One series deals with IL-6. Nature of the series: RT/PCR TaqMan array, IL-6 gene expression in 12Z cells. Conditions: 48 hours, CBG, CBC, CBN 30 microM, CBD, CBDV 10 microM, THC 40 microM. As to the method: (§1) Total RNA from untreated or single treated 12Z cell line with CBD, CBG, CBC, CBN, CBDV and THC was extracted using Rneasy Mini kit (Qiagen, Milan, Italy). One microgram of total RNA from each sample was subjected to reverse transcription in a total volume of 20 μL using the High-Capacity cDNA Archive Kit (Applied Biosystem, Foster City, PA, USA) according to the instructions. cDNAs were analyzed by qRT-PCR performed using an IQ5 Multicolor Real time PCR Detection system. Quantitative real-time gene expression was performed with the TaqMan® Array Plate, containing 15 associated cytokine genes and beta-actin as endogenous control gene, was purchased (Thermo Fisher, Grand Island, NY, USA) and used to evaluate the treatments in modulating 12Z-related genes. Measurement of housekeeping gene (beta-Actin) on the samples was used to normalize mRNA content. The gene expression levels of treated cell lines were expressed as normalized fold compared with vehicle-treated cells.

A further series has as its system PANC-1 cells. Nature of the series: MTT cell viability assay, PANC-1 pancreatic ductal adenocarcinoma cell line. As to conditions: PANC-1, 72 hours post-treatment, FIG. 11. As to the method:
(§2) Ishikawa is a well differentiated type I cell line, was purchased from Sigma Aldrich (Milan, Italy). Ishikawa cells were grown in EMEM medium (Lonza, Milan, Italy), supplemented with 5% fetal bovine serum (FBS), 2 mM/L of glutamine, 100 IU/ml of penicillin, and […] of streptomycin. Primary EC cells PCEM004A, poorly differentiated mixed type I/II cell line, was grown in RPMI1640, supplemented with 20% FBS, 2 mM/L of glutamine, 100 IU/ml of penicillin, and […] of streptomycin. Immortalized human endometriotic cell line (12Z) was generated by infecting cells, obtained from a person undergoing laparoscopy, with SV40 virus. This cell line was purchased by Applied Biological Materials Inc and was maintained in Prigrow III medium supplemented with 20% no-heat inactivated FBS, 100 IU/ml of penicillin and […] of streptomycin. Human pancreatic ductal adenocarcinoma PANC-1 cell line was purchased by Sigma Aldrich (Milan, Italy) and cultured in DMEM high glucose medium (EuroClone, Milan, Italy) supplemented with 10% FBS, 2 mM L-glutamine, 100 IU/mL penicillin, […] streptomycin and 1 mM sodium pyruvate. The human glioblastoma U251 cell line (grade IV), obtained from European Collection of Cell Cultures (ECACC, Salisbury, UK), was maintained in EMEM supplemented with 10% FBS, 2 mmol/L L-glutamine, 100 IU/mL penicillin and 100 μg streptomicin. Media were changed every 48 hours until cells were 90% confluent. All cell lines were maintained at 37 C with 5% CO2 and 95% humidity.
(§3) EC cell lines, PANC-1, U251, and 12Z (3×10^4 cells/ml) were plated in 96-well plates, in a final volume of 100 microl/well. After 24 hours, treatments or vehicles were added for 72 hours. At least six replicates were used for each treatment. At the indicated time point, cell viability was assessed by adding 0.8 mg/ml of 3-[4,5-dimethylthiazol-2-yl]-2,5 diphenyl tetrazolium bromide (MTT, Sigma-Aldrich) to the media. After 3 hours, the plates were centrifuged, the supernatant was removed, and the pellet was solubilized with 100 microl/well of DMSO. The absorbance of the samples against a background control (medium alone) was measured at 570 nm using an ELISA reader microliter plate (BioTek Instruments, Winooski, VT, United States). IC50 was calculated by PRISM 5.0a software, for single phytocannabinoids.
In general terms: Formazan colour is commonly taken as a measure of viable cells.

The subject of series [1] is 12Z endometriotic cell line. Nature of the series: Transwell invasion assay, 12Z endometriotic cells. Conditions: non-cytotoxic dose, 24 hours, Transwell/Matrigel, major effect order THC>CBG>CBD>CBDV>CBN>CBC, FIG. 22-30. How it is done:
as §2
12Z cell invasion was evaluated by Transwell invasion assay using Transwell chambers (BD Biosciences, Franklin Lakes, NJ, USA) characterized by the upper face of the polycarbonate membrane covered with 1 mg/ml Matrigel. A total of 750 μl cell culture medium supplemented with 10% FBS was added in the lower chamber. Serum free culture medium ([…]) containing 2.5×10^4 12Z endometriotic cells was plated into the upper chamber with the appropriate treatment. After 24 hours of incubation, the cells remaining in the upper chamber were removed by cotton swabs. The cells on the lower and inner surface of the membrane were fixed in cold methanol, stained with hoechst and observed using a fluorescence microscope (BX51 fluorescence microscope, Olympus, Milan, Italy). A total of ten fields at ×10 magnification were selected at random to measure the average cell coverage using ImageJ software version 1.45s (National Institutes of Health, Bethesda, MD, USA). The experiments were performed in triplicate at least three times independently.

For a further series, the system named is U251 cells. Nature of the series: MTT cell viability assay, U251 glioblastoma cell line. As to conditions: U251, 72 hours post-treatment, FIG. 13. As to the method: as §2, §3
Another series concerns PCEM004A cells. Nature of the series: MTT cell viability assay, primary mixed type PCEM004A endometrial cancer cell line. As to conditions: 72 hours; for cytotoxicity (cell viability, % vs vehicle): phytocannabinoid alone, FIG. 5; for cytotoxicity (cell viability, % vs vehicle) in combination with chemotherapeutic drugs: with paclitaxel (PAC), doxorubicin (DOX) and cisplatin (CIS), FIG. 7-10. How it is done: as §2, §3

Series [2] has as its system endometrial cancer cell lines. Nature of the series: MTT cell viability, endometrial cancer cell lines tested (Ishikawa and PCEM004A, stated jointly). As to conditions: for dose dependence of effect on cell viability: individual phytocannabinoids. As to the method:
as §2, §3

The test system of series [3] is 12Z endometriotic cell line. Nature of the series: MTT cell viability assay, 12Z endometriotic cell line. As to conditions: single administration, 72 hours post-treatment, FIG. 15-20. How it is done: as §2, §3
The subject of the next series is Ishikawa cells. Nature of the series: MTT cell viability assay, Ishikawa type I endometrial cancer cell line. Conditions: 72 hours; for cytotoxicity (cell viability, % vs vehicle) in combination: in double with cannabidiol (10, 15 and 20 microM CBD), FIG. 3-4; for cytotoxicity (cell viability, % vs vehicle): phytocannabinoid alone, FIG. 1; for cytotoxicity (cell viability, % vs vehicle) in combination with chemotherapeutic drugs: with paclitaxel (PAC), doxorubicin (DOX) and cisplatin (CIS), FIG. 7-10. How it is done:
as §2, §3

Another series relates to CXCL8. Nature of the series: RT/PCR TaqMan array, CXCL8 gene expression in 12Z cells. Conditions: 48 hours, CBG, CBC, CBN 30 microM, CBD, CBDV 10 microM, THC 40 microM. As to the method:
as §1
(Quantitative PCR measures a nucleic acid by following its amplification.)

With `CCCCCc1cc(O)c2c(c1)OC(C)(C)[C@@H]1CCC(C)=C[C@@H]21` [THC, (6aR,10aR)-6,6,9-trimethyl-3-pentyl-6a,7,8,10a-tetrahydrobenzo[c]chromen-1-ol, reference compound], the “IL-6 gene expression (normalized versus vehicle)” value in the series on IL-6 was “reduced”. Besides, the “cytotoxicity (cell viability, % vs vehicle)” value (with PANC-1 cells; with U251 cells; with PCEM004A cells; in series [3]; in the series with Ishikawa cells) was “induced cytotoxicity” throughout. Further, the endometriosis cell invasion result in [1] is on record as “effective in reducing endometriosis cells invasion”. In addition, the “cytotoxicity (cell viability, % vs vehicle) in combination with chemotherapeutic drugs” value with PCEM004A cells and in the series with Ishikawa cells was “induced cytotoxicity” each time. Besides, the “dose dependence of effect on cell viability” value in series [2] (endometrial cancer cell lines) is “dose dependent effect”. The “cytotoxicity (cell viability, % vs vehicle) in combination” value in the series on Ishikawa cells was “induced cytotoxicity”.

Consider `CCCCCc1cc(O)c2c(c1)OC(C)(C)c1ccc(C)cc1-2` [CBN, 6,6,9-trimethyl-3-pentylbenzo[c]chromen-1-ol], for which the “cytotoxicity (cell viability, % vs vehicle)” value (in the series with PANC-1 cells; in the series on U251 cells; in the series on PCEM004A cells; in series [3]; in the series with Ishikawa cells) was “induced cytotoxicity” in each case. Besides, the endometriosis cell invasion result in [1] is listed as “effective in reducing endometriosis cells invasion”. The “cytotoxicity (cell viability, % vs vehicle) in combination with chemotherapeutic drugs” value in the series on PCEM004A cells and in the series on Ishikawa cells was “induced cytotoxicity” in each case. The “efficacy in reducing cell viability (rank among individual phytocannabinoids)” value in [2] (endometrial cancer cell lines, order: CBN, followed by CBDV, CBG, THC and CBC) is recorded as “highest”. In series [2] (endometrial cancer cells, combinations of phytocannabinoids), the “efficacy of phytocannabinoid combinations in reducing cell viability” value is on record as “amplified the effect of all cannabinoids”. The “CXCL8 gene expression (normalized versus vehicle)” value with CXCL8 is reported as “reduced”. Besides, the “cytotoxicity (cell viability, % vs vehicle) in combination” value in the series on Ishikawa cells is on record as “induced cytotoxicity”.

With `CCCCCc1cc(O)c2c(c1)OC(C)(CCC=C(C)C)C=C2` (stereo not drawn) [CBC, 2-methyl-2-(4-methylpent-3-enyl)-7-pentylchromen-5-ol], the “cytotoxicity (cell viability, % vs vehicle)” value (in the series with PANC-1 cells; with U251 cells; in the series with PCEM004A cells; in series [3]; in the series on Ishikawa cells) was “induced cytotoxicity” in each case. The endometriosis cell invasion result in series [1] is reported as “effective in reducing endometriosis cells invasion”. Also, the “cytotoxicity (cell viability, % vs vehicle) in combination with chemotherapeutic drugs” value in the series with PCEM004A cells and with Ishikawa cells was “induced cytotoxicity” in each case. In addition, the “dose dependence of effect on cell viability” value in [2] (endometrial cancer cell lines) was “dose dependent effect”. In addition, in the series on Ishikawa cells, the “cytotoxicity (cell viability, % vs vehicle) in combination” value is recorded as “induced cytotoxicity”.
